Consider 29 compounds from patent US8178688B2, “Benzamidine derivatives, process for the preparation thereof and pharmaceutical composition comprising the same” (Dong Wha Pharmaceutical Co., Ltd., priority 2004, dated 2012).

One assay has as its system osteoclast differentiation. Kind of assay: Inhibitory effects on osteoclast differentiation (co-culture of bone marrow cells with osteoblast, TRAP staining). It is filed as cell-based, mice. Conditions: Mus musculus, Osteoclast, 168 h, read-out: % inhibitory activity on osteoclastogenesis. As for the experimental part:
The effect of benzamidine derivatives of the present invention on osteoclast proliferation and differentiation process was evaluated via co-culture with osteoblast.
Tibia and Femora were aseptically ectomized from male ddY mice of 6-8 weeks to harvest bone marrow cells by using a syringe (21G, Korea Green Cross).
The bone marrow cells were suspended in 5 mL α-MEM medium (Gibco BRL Co.) containing sodium bicarbonate (2.0 g/L), streptomycin (100 mg/L) and penicillin ([…]). The harvested cells were centrifuged at 600×g for 5 mins to collect the whole quantity. To remove the red blood cells within bone marrow cells, 3 mL of Tris HCl (0.83% NH4Cl, pH7.5) was added and well mixed. After centrifuging above cells, the numbers of bone marrow cells were counted and then, the bone marrow cells were immediately used for co-culture system with osteoblast.
The calvaria were aseptically ectomized from neonate ICR mice of 1˜2 days, washed with PBS solution and incubated with a mixture of enzyme solution (0.2% collagenase and 0.1% dispase) at 37° C. gentle shaker. This procedure was sequentially repeated (10, 10, 10, 20, 20 and 20 mins), and then the calvaria cells having the characteristics of osteoblast mostly released from III-VI digestion groups were collected and washed with the medium (serum-free α-MEM). The washed cells were cultivated in α-MEM medium containing 10% FBS for 2˜3 days. After subculturing, these cells were used for this experiment, and diluted to reach the concentration of 1×10^6 cell/mL for storage at −70° C.
Benzamidine derivatives of the present invention were dissolved in a sterile distilled water or ethanol to make desired concentrations following dilution. The final volume of specimen added to the medium was determined at the ratio of 1:1000.
Bone marrow cells prepared, in the above and osteoblast from calvaria were co-cultured for osteoclast differentiation. Both bone marrow cells (25,000 cells/cm^2) and osteoblast (10,000 cells/cm^2) were plated on a 96 well plate in α-MEM medium containing FBS with specimen, and then cultured with test materials for 7 days. Differentiation factors, such as dexamethasone (10^−7M) and vitamin D3 (10^−8M), were also continuously added to the medium from the first day of cultivation. The medium was changed with fresh media containing a mixture of specimens and differentiation factors every 2˜3 day.
TRAP was used as a marker to measure osteoclast in consideration of its characteristics showing a positive reaction to TRAP staining solution. TRAP staining solution was prepared in a manner that 5 mg of naphtol AS-MS phosphate (sigma N-4875), a substrate and 25 mg of coloring agent (Fast Red Violet LB salt) were dissolved in N,N-dimethylformamide (about 0.5 mL), 0.1N NaHCO3 buffer solution (50 mL) containing 50 mM tartaric acid was added, and the reaction mixture was stored at refrigerator prior to use.
After culturing the cells for 7 days, the medium was removed from the wells, the cells were once washed with PBS solution and fixed to PBS containing 10% formalin for 2˜5 mins. The cells were fixed again in a mixed solution of ethanol and acetone (1/1) for about 1 min, and dried off. The cells were further treated by TRAP staining solution for 15 mins and washed with PBS. The experimental results were measured by counting the number of osteoclasts with 3 or more nuclei showing TRAP-positive reaction under a microscopic examination. Each of tests was confirmed over three times for gaining more reliable data.
As shown in the following table 7, the inhibitory effect of each experimental group on the differentiation of osteoclast versus controls was expressed by inhibitory percentage value.
As to `CCCCCc1nc(-c2ccc(OCCCCCOc3ccc(C(=N)NO)cc3)cc2)c(C(C)C)s1` [Example 28, N-hydroxy-4-(5-[4-(5-isopropyl-2-pentyl-1,3-thiazol-4-yl)phenoxy]pentoxy)-benzamidine], the inhibition at 1 µM was determined as 29.6%. On the same count and under the same terms, under `CCCCCc1nc(-c2ccc(OCCCCCOc3ccc(C(=N)NO)cc3)cc2)c(CCCC)s1` [Example 36, N-hydroxy-4-(5-[4-(5-butyl-2-pentyl-1,3-thiazol-4-yl)phenoxy]pentoxy)-benzamidine] stands 46.4%; under `CCCN1CCC(c2nc(-c3ccc(OCCCCCOc4ccc(C(=N)NO)cc4)cc3)c(CC3CCCC3)s2)CC1` [Example 68, N-hydroxy-4-(5-[4-(5-cyclopentylmethyl-2-(1-propyl-piperidin-4-yl)-1,3-thiazol-4-yl)phenoxy]pentoxy)-benzamidine], 83%.

Staying with this assay, now noted: Mus musculus, Osteoclast, 168 h; 1 m; co-culture of bone marrow cells and osteoblast, 7 days, TRAP-positive osteoclasts versus controls; read-out: % inhibitory activity on osteoclastogenesis.
Take `CCCCc1sc(NC(=N)N)nc1-c1ccc(OCCCCCOc2ccc(C(=N)NO)cc2)cc1` [Example 64, N-hydroxy-4-(5-[4-(5-butyl-2-guanidino-1,3-thiazol-4-yl)phenoxy]pentoxy)-benzamidine]: the inhibition at 1 µM was determined as 43.7%.

In the case of `N=C(NO)c1ccc(OCCCCCOc2ccc(-c3nc(N)sc3Cc3ccccc3)cc2)cc1` [Example 65, N-hydroxy-4-(5-[4-(2-amino-5-benzyl-1,3-thiazol-4-yl)phenoxy]pentoxy)-benzamidine], the inhibition at 1 µM amounted to 46%.

For `N=C(N)Nc1nc(-c2ccc(OCCCCCOc3ccc(C(=N)NO)cc3)cc2)c(Cc2ccccc2)s1` [Example 66, N-hydroxy-4-(5-[4-(5-benzyl-2-guanidino-1,3-thiazol-4-yl)phenoxy]pentoxy)-benzamidine], the inhibition at 1 µM was 38.5%. Same read-out and setting: next, `Cc1sc(NC(=O)C(C)C)nc1-c1ccc(OCCCCCOc2ccc(C(=N)NO)cc2)cc1` [Example 69, N-hydroxy-4-(5-[4-(2-(isobutyryl)amino-5-methyl-1,3-thiazol-4-yl)phenoxy]pentoxy)-benzamidine]: 99.6%.

Still in this assay, the particulars now being: Mus musculus, Osteoclast, 168 h; 1 μm; co-culture of bone marrow cells and osteoblast, 7 days, TRAP-positive osteoclasts versus controls; read-out: % inhibitory activity on osteoclastogenesis.
Consider `Cc1sc(C(C)C)nc1-c1ccc(OCCCCCOc2ccc(C(=N)NO)cc2)cc1` [Example 1, N-hydroxy-4-(5-[4-(2-isopropyl-5-methyl-1,3-thiazol-4-yl)phenoxy]pentoxy)-benzamidine], for which the inhibition at 1 µM was found to be 87%. On the same count and under the same terms, next, `Cc1sc(C(C)C)nc1-c1ccc(OCCCCCOc2ccc(C(=N)N)cc2)cc1` [Example 2, 4-(5-[4-(2-isopropyl-5-methyl-1,3-thiazol-4-yl)phenoxy]pentoxy)-benzamidine]: 78.4%; `CCc1nc(-c2ccc(OCCCCCOc3ccc(C(=N)NO)cc3)cc2)cs1` [Example 4, N-hydroxy-4-(5-[4-(2-ethyl-1,3-thiazol-4-yl)phenoxy]pentoxy)-benzamidine]: 81.1%. Consider `CCc1sc(C)nc1-c1ccc(OCCCCCOc2ccc(C(=N)NO)cc2)cc1` [Example 17, N-hydroxy-4-(5-[4-(5-ethyl-2-methyl-1,3-thiazol-4-yl)phenoxy]pentoxy)-benzamidine], for which the inhibition at 1 µM is 59.1%. In the case of `CCc1sc(C(C)C)nc1-c1ccc(OCCCCCOc2ccc(C(=N)NO)cc2)cc1` [Example 19, N-hydroxy-4-(5-[4-(5-ethyl-2-isopropyl-1,3-thiazol-4-yl)phenoxy]pentoxy)-benzamidine], the inhibition at 1 µM came out at 42.6%. For `CCc1nc(-c2ccc(OCCCCCOc3ccc(C(=N)NO)cc3)cc2)c(C(C)C)s1` [Example 24, N-hydroxy-4-(5-[4-(2-ethyl-5-isopropyl-1,3-thiazol-4-yl)phenoxy]pentoxy)-benzamidine], the inhibition at 1 µM is 57.8%. Same read-out and setting: under `CC(C)c1nc(-c2ccc(OCCCCCOc3ccc(C(=N)NO)cc3)cc2)c(C(C)C)s1` [Example 25, N-hydroxy-4-(5-[4-(2,5-diisopropyl-1,3-thiazol-4-yl)phenoxy]pentoxy)-benzamidine] stands 26.5%; under `CC(C)c1sc(-c2ccccc2)nc1-c1ccc(OCCCCCOc2ccc(C(=N)NO)cc2)cc1` [Example 26, N-hydroxy-4-(5-[4-(5-isopropyl-2-phenyl-1,3-thiazol-4-yl)phenoxy]pentoxy)-benzamidine], 42.9%. Consider `CC(C)c1sc(-c2cccnc2)nc1-c1ccc(OCCCCCOc2ccc(C(=N)NO)cc2)cc1` [Example 27, N-hydroxy-4-(5-[4-(5-isopropyl-2-pyridin-3-yl-1,3-thiazol-4-yl)phenoxy]pentoxy)-benzamidine], for which the inhibition at 1 µM was 56.5%. `CCCc1sc(C)nc1-c1ccc(OCCCCCOc2ccc(C(=N)NO)cc2)cc1` [Example 29, N-hydroxy-4-(5-[4-(2-methyl-5-propyl-1,3-thiazol-4-yl)phenoxy]pentoxy)-benzamidine]: the inhibition at 1 µM turned out to be 96.3%. Still for that read-out and setting: next, `CCCCc1sc(-c2ccccc2)nc1-c1ccc(OCCCCCOc2ccc(C(=N)NO)cc2)cc1` [Example 33, N-hydroxy-4-(5-[4-(5-butyl-2-phenyl-1,3-thiazol-4-yl)phenoxy]pentoxy)-benzamidine]: 49.5%; `Cc1nc(-c2ccc(OCCCCCOc3ccc(C(=N)NO)cc3)cc2)c(Cc2ccccc2)s1` [Example 38, N-hydroxy-4-(5-[4-(5-benzyl-2-methyl-1,3-thiazol-4-yl)phenoxy]pentoxy)-benzamidine]: 56.8%.

Regarding `Cc1nc(-c2ccc(OCCCCCOc3ccc(C(=N)NO)cc3)cc2)c(CCCl)s1` [Example 42, N-hydroxy-4-(5-[4-(5-(2-chloro-ethyl)-2-methyl-1,3-thiazol-4-yl)phenoxy]pentoxy)-benzamidine], the inhibition at 1 µM was determined as 90.9%. Same read-out and setting: under `Cc1nc(-c2ccc(OCCCCCOc3ccc(C(=N)NO)cc3)cc2)c(CC(C)C)s1` [Example 44, N-hydroxy-4-(5-[4-(5-isobutyl-2-methyl-1,3-thiazol-4-yl)phenoxy]pentoxy)-benzamidine] stands 96.6%; under `Cc1nc(-c2ccc(OCCCCCOc3ccc(C(=N)N)cc3)cc2)cs1` [Example 52, 4-(5-[4-(2-methyl-1,3-thiazol-4-yl)phenoxy]pentoxy)-benzamidine], 0%; under `CC(C)c1nc(-c2ccc(OCCCCCOc3ccc(C(=N)N)cc3)cc2)cs1` [Example 53, 4-(5-[4-(2-isopropyl-1,3-thiazol-4-yl)phenoxy]pentoxy)-benzamidine], 0%. Turning to `Cc1nc(-c2ccc(OCCCCCOc3ccc(C(=N)N)cc3)cc2)c(C)s1` [Example 54, 4-(5-[4-(2,5-dimethyl-1,3-thiazol-4-yl)phenoxy]pentoxy)-benzamidine], the inhibition at 1 µM was determined as 94.2%. On the same count and under the same terms, next, `CCc1sc(C(C)C)nc1-c1ccc(OCCCCCOc2ccc(C(=N)N)cc2)cc1` [Example 55, 4-(5-[4-(5-ethyl-2-isopropyl-1,3-thiazol-4-yl)phenoxy]pentoxy)-benzamidine]: 67.8%; `CCc1sc(-c2ccccc2)nc1-c1ccc(OCCCCCOc2ccc(C(=N)N)cc2)cc1` [Example 56, 4-(5-[4-(5-ethyl-2-phenyl-1,3-thiazol-4-yl)phenoxy]pentoxy)-benzamidine]: 58.7%.

For the compound `CCc1sc(N)nc1-c1ccc(OCCCCCOc2ccc(C(=N)NO)cc2)cc1` [Example 60, N-hydroxy-4-(5-[4-(2-amino-5-ethyl-1,3-thiazol-4-yl)phenoxy]pentoxy)-benzamidine], the inhibition at 1 µM is 28.2%. The same measure, in the same setting: under `CC(C)c1sc(N)nc1-c1ccc(OCCCCCOc2ccc(C(=N)NO)cc2)cc1` [Example 61, N-hydroxy-4-(5-[4-(2-amino-5-isopropyl-1,3-thiazol-4-yl)phenoxy]pentoxy)-benzamidine] stands 0%. Still for that read-out and setting: next, `CC(C)c1sc(NC(=N)N)nc1-c1ccc(OCCCCCOc2ccc(C(=N)NO)cc2)cc1` [Example 62, N-hydroxy-4-(5-[4-(2-guanidino-5-isopropyl-1,3-thiazol-4-yl)phenoxy]pentoxy)-benzamidine]: 19.1%.
